Test results: article PMC2898382 (The Journal of Biological Chemistry, 2010)

Biological target: T1, purified bovine catalase (Bos taurus, UniProt P00432)
T1 sequence (P00432 2-527): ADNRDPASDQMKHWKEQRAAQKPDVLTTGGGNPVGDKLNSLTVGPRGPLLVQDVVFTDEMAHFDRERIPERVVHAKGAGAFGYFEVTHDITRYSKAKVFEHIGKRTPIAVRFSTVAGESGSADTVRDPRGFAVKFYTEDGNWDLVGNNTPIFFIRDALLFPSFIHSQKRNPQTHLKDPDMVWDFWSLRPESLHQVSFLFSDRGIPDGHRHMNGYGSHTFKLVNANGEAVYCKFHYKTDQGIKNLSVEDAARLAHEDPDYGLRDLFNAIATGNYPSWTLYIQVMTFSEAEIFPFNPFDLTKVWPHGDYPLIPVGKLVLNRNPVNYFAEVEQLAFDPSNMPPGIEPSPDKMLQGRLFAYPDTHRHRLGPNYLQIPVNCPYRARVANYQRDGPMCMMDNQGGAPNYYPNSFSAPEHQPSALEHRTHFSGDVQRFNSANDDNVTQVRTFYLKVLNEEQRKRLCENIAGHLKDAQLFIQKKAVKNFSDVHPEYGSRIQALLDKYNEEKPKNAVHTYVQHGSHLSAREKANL
Test: H2O2 breakdown at […] nm, global fit to competitive inhibition model
Format: biochemical

A Ki of 230 µM was found for `NC(=O)NO` [Hydroxyurea] in this work.
